Columns and labels:
calves (Holstein types) [1] = test: Biochemical blood tests (18 factors) for adverse effects of added selenium; type: in vivo; conditions: blood samples 24, 48 hours and 1 week post-parturition; versus colostrum without selenium
Protocol: Moreover, the blood samples were taken 24, 48 hours and 1 week post-parturition respectively, and biochemical blood tests (with 18 factors) were carried out to investigate any adverse effects of added selenium on the health conditions of calves. There was little difference between the test results of the calves administered with colostrum added with selenium, and those of the calves administered with colostrum without selenium.

calves (Holstein types) [2] = test: Absorption of lactalbumin into plasma of calves (FIG. 5); type: in vivo; conditions: 3 ppm selenium in first colostrum feed; 24 hours postnatal; versus no addition
Protocol: To calves administered with colostrum with selenium, selenium was added only to the first colostrum feeds.
Therefore, selenium is effective in absorption of nonimmunoglobulin proteins such as lactalbumin. Accordingly, selenium enhances pinocytosis, thereby enhancing immunoglobulin proteins or nonimmunoglobulin proteins.

calves (Holstein types) [3] = test: IgG in plasma of postnatal calves fed colostrum with added selenium, measured by radial immuno-diffusion (RID); type: in vivo; conditions: for IgG in Plasma: plasma 24 hours post-parturition
Protocol: In the example, colostrum added with selenium was administered to one of the two calves (Holstein types) in a pair, and colostrum without selenium was administered to the other calf. A total of 32 pairs of calves were employed for experimental purposes. For equalizing the experimental conditions of these two sets of calves, they were selected based on their proximities in body weight. The body weights ranged from 30.8-56.9 kg, and the differences between in body weight within a pair were less than 2.5 kg.
(§1) As a supply source of selenium, sodium selenite was used. In order to avoid different absorption rates of immunoglobulins based on different types of colostrum, the same amounts of colostrum milked from the same source were fed to these two calves in a pair. The colostrums fed (frozen for preservation) were of the four types as follows: the first milking post-parturition (Colostrum 1), the second milking post-parturition (Colostrum 2), the third milking post-parturition (Colostrum 3), and the fourth milking post-parturition (Colostrum 4). 2 liters of Colostrum 1 (1 L×2 bottles) were taken, and for the rest, 4 liters (2L×2 bottles) were taken, respectively. 1 liter of Colostrum 1 within 2 hours post-parturition was fed, and then 2 liters of Colostrum 2, 3 and 4 were fed, respectively 12, 24 and 36 hours post-parturition. The concentrations of immunoglobulins in the colostrums used were 24.3-129.0 mg/ml, and those of selenium were 0.06-0.1 ppm (before adding selenium). The concentrations of immunoglobulins G (IgG) in plasma of calves 24 hours post-parturition were measured by means of radial immuno-diffusion (RID). The experiments as above were carried out while varying the selenium content based on the number of addition of selenium, i.e., (1) adding selenium only to Colostrum 1 (1.0-5.0 ppm), and (2) adding selenium to all four types of colostrum (0.2-4.0 ppm).

[4] = Selenium concentration in plasma of calves after administration (FIG. 4); type: in vivo, calves (Holstein types); conditions: 3 ppm selenium, administered only once within 3 hours postnatal; versus no addition
Source text: as §1, with “ppm). […]” for “ppm).”

calves (Holstein types) [5] = test: IgG in plasma of postnatal calves fed colostrum with added selenium, measured by radial immuno-diffusion (RID); type: in vivo
[6] = 3 ppm selenium, first feed only, versus no addition

Q: With `O=[Se]([O-])[O-].[Na+].[Na+]` [Se, sodium selenite] as the compound, how does the “adverse effects on the health conditions of calves, biochemical blood tests (18 factors)” value (calves (Holstein types) [1]) read?
A: no adverse effects

Q: What about the “absorption of lactalbumin (FIG. 5)” value (calves (Holstein types) [2]) of the same compound?
A: enhances the absorption of lactalbumin

Q: What about the “IgG in Plasma” value (calves (Holstein types) [3]; 0.2 ppm Se added to all four colostrum feeds (4x), average of 3 calves) of the same compound?
A: 25.7 mg/mL

Q: What about the “IgG in Plasma” value (calves (Holstein types) [3]; 1 ppm Se added only to first colostrum feed (1x), average of 3 calves) of the same compound?
A: 17 mg/mL

Q: What about the “IgG in Plasma” value (calves (Holstein types) [3]; 1.0 ppm Se added to all four colostrum feeds (4x), average of 5 calves) of the same compound?
A: 32.9 mg/mL

Q: And the “IgG in Plasma” value (calves (Holstein types) [3]; 2 ppm Se added only to first colostrum feed (1x), average of 3 calves)?
A: 16 mg/mL

Q: What about the “IgG in Plasma” value (calves (Holstein types) [3]; 3 ppm Se added only to first colostrum feed (1x), average of 6 calves) of the same compound?
A: 21.5 mg/mL

Q: And the “IgG in Plasma” value (calves (Holstein types) [3]; 4 ppm Se added only to first colostrum feed (1x), average of 4 calves)?
A: 17.4 mg/mL

Q: And the “IgG concentration in plasma, four feeds with selenium versus first feed only with selenium” value (calves (Holstein types) [3]; 4x versus 1x addition of selenium)?
A: about the same level

Q: What about the “IgG in Plasma” value (calves (Holstein types) [3]; 5 ppm Se added only to first colostrum feed (1x), average of 4 calves) of the same compound?
A: 23 mg/mL

Q: And the “IgG concentrations in plasma versus calves given colostrum without selenium (FIGS. 2 and 3)” value (calves (Holstein types) [3]; in most of the experimental conditions, 1x and 4x addition)?
A: shown to be higher

Q: And the “selenium level in blood, temporal change (FIG. 4)” value [4]?
A: high selenium level in blood was maintained over 4 weeks postnatal

Q: What about the “duration of high immunoglobulin G level in blood (FIG. 7)” value (calves (Holstein types) [5]; [6]) of the same compound?
A: the high level against no addition was maintained over 14 days (2 weeks)

Q: And the “immunoglobulin G level in blood immediately after administration (FIG. 7)” value (calves (Holstein types) [5]; [6])?
A: immunoglobulin G level immediately after administration of selenium is high

Q: What about the “IgG in Plasma” value (calves (Holstein types) [5]; 5.0 ppm Se added to all four colostrum feeds (4x), plasma 24 hours post-parturition, average of 4 calves) of the same compound?
A: 24.6 mg/mL

Q: What about the “immunoglobulin G level in blood, selenium and colostrum administered separately (FIG. 6)” value (calves (Holstein types) [5]; only 3 ppm selenium within 2 hours postnatal, then only colostrum at 12, 24, 36 hours, within 24 hours postnatal, versus no addition) of the same compound?
A: absorption level of immunoglobulin G is high

From patent US8728539B2, “Method of enhancing intestinal pinocytosis of immunoglobulins in postnatal domestic mammals” (Incorporated Administrative Agency, National Agriculture …, priority 2004, dated 2014)
